Test results as given in patent US6610657B1, “Alkyl peptide amides and applications” (Promega Corporation, priority 1996, dated 2003).
*: point of attachment. Stearyl = stearyl group; stearyl = stearyl group; sulfo = O=S(=O)(O)*

What was measured:
PP-1 = PP-1 (Homo sapiens, UniProt P62136); conditions: cited from earlier work
insulin receptor = conditions: intact CHO/HIRc cells; cited from earlier work
PP-2A = PP-2A (Homo sapiens, UniProt P67775); conditions: cited from earlier work
alkaline phosphatase = conditions: cited from earlier work
RII binding to AKAP 110 = experiment: RII overlay assay on bovine sperm AKAP; conditions: 20 μM peptide, densitometric scanning, FIG. 6
Description: Western blotting and overlay assays. The overlay procedure is a modified Western blot procedure. Proteins were separated by SDS-polyacrylamide gel electrophoresis (SDS-PAGE) and transferred to a nylon membrane (Immobilon). After treatment with Blotto (Protein Methods, Bollag and Edelstein, eds., Wiley-Liss, New York, 1991) to prevent non-specific binding, radiolabelled RIIα or RIIβ probes were applied (Carr and Scott, Trends Biochem. Sci. 17:246-249, 1992). Recombinant RIIα was produced as previously described (Carr et al., J. Biol. Chem. 266:14188-14192, 1991; Carr et al., J. Biol. Chem. 267:13376-13382, 1992). RIIα and RIIβ were gifts from Dr. John Scott, Oregon Health Sciences University, Portland, Oreg. Two different variations of the overlay assay were used. In the first variation, recombinant RII radiolabeled by incubation with the catalytic subunit of PKA and γ^32P-ATP was used. After separation from free γ^32P-ATP, the ^32P-labeled RII (500,000 CPM/10 ml blotto) was incubated with the blocked blot for four hours followed by washing and autoradiography. […]
RII overlays were performed in the absence (lane 1) or presence of 20 μM Ht31, s-Ht31, or s-Ht31-P (lanes 2, 3 or 4, respectively). Addition of the three peptide species inhibited RII binding to AKAP110 by 100%, 85% and 0%, respectively, as determined by densitometric scanning analysis.

monkey ejaculated sperm = experiment: Monkey sperm motility; format: cell-based, rhesus monkey; conditions: increasing concentrations in neat semen, 37° C., 5 and 30 min, FIG. 11
Experimental: (§1) Sperm Preparation. Testes from mature bulls with intact tunica were obtained from a local slaughterhouse and sperm from caput or caudal epididymis were isolated and washed as previously described (Vijayaraghavan et al., Biol. Reprod. 32:489-500, 1985). The sperm were resuspended in buffer A (120 mM NaCl, 10 mM KCl, 10 mM Tris[hydroxymethyl]aminomethane (TRIS), pH 7.4) supplemented with 10 mM glucose and 10 mg/ml bovine serum albumin (BSA) for motility measurements. Monkey semen was obtained by electro-ejaculation and processed by procedures previously reported (Smith et al., Biol. Reprod. 54:719-727, 1996). Human semen samples were obtained from a fertility clinic at the Oregon Health Sciences University.
Sperm Motility Measurement. Head motility parameters were determined as previously described (Vijayaraghavan et al., Biol. Reprod. 54:709-718, 1996; Stephens et al., Biol. Reprod. 38:577-586, 1988). A 3-4 μL aliquot of sperm suspension (5×10^7/ml) was loaded onto a counting chamber at 37° C. After bulk fluid movement had subsided, six different locations on the slide were recorded. The videotaped segments were analyzed by a computerized image-analysis system (CASMA) as previously described (Vijayaraghavan et al., Biol. Reprod. 54:709-718, 1996; Stephens et al., Biol. Reprod. 38:577-586, 1988). This computer system measured several parameters of head motion, including forward motility. […]

sperm = format: cell-based
Experimental: In the first such experiment, the vital dyes SYBR-green and rhodamine 123 were added to sperm before and after treatment with s-Ht31 in order to determine whether s-Ht31 affects sperm viability or structural integrity. Only viable, intact cells normally take up such dyes.

[1] = tested on: PKA in bovine caudal and caput sperm; experiment: PKA activity of bovine caudal and caput sperm after treatment; format: cell-based; conditions: 50 μM
Experimental: PKA Activity. PKA activity was assayed as previously described (Carr et al., J. Biol. Chem. 268:20729-20732, 1993) with minor changes. Whole caput or caudal sperm were treated with 2-chloro-2′-deoxyadenosine (50 μM), H-89 (50 μM), or both for 30 min. at 37° C. The sperm were then washed twice in ice cold homogenization buffer supplemented with protease inhibitors, benzamidine (10 mM), leupeptin (4 μg/ml), and N-tosyl-L-phenylalanine chloromethyl ketone (TPCK) (100 μM), and sonicated for one min. Reaction mixtures (20 microliters (μl) total) contained 250 μM Kemptide (i.e., LRRASLG), 250 μM (γ^32P) ATP, 25 mM Na3VO4, 50 mM 3-[N-morpholino] propanesulfonic acid (MOPS) (pH=7.0), 10 mM MgCl2, 0.25 mg/ml BSA and where indicated, 10 μM cAMP. Assays were initiated by addition of labeled ATP, incubated for 2 min at 30° C., and stopped by addition of 30 μl of 1 N HCl. Twenty μl of the reaction was then spotted on phosphocellulose paper followed by three washes in 75 mM phosphoric acid. The papers were then analyzed by Cerenkov counting. All determinations were made in quadruplicate.
In previous reports, initiation or stimulation of sperm motility by CDA was associated with an elevation of cAMP and an increase in PKA activity was assumed (Vijayaraghavan and Hoskins, Biol. Reprod. 34:468-77, 1986). […] Bovine sperm were incubated as described for FIGS. 14 and 15 and then assessed for PKA activity. […]

[2] = tested on: bovine caudal epididymal sperm; experiment: Bovine sperm motility (CASMA, forward motility index); format: cell-based
Experimental: as §1
Sperm Motility Measurement. Head motility parameters were determined as previously described (Vijayaraghavan et al., Biol. Reprod. 54:709-718, 1996; Stephens et al., Biol. Reprod. 38:577-586, 1988). A 3-4 μL aliquot of sperm suspension (5×10^7/ml) was loaded onto a counting chamber at 37° C. After bulk fluid movement had subsided, six different locations on the slide were recorded. The videotaped segments were analyzed by a computerized image-analysis system (CASMA) as previously described (Vijayaraghavan et al., Biol. Reprod. 54:709-718, 1996; Stephens et al., Biol. Reprod. 38:577-586, 1988). This computer system measured several parameters of head motion, including forward motility. The forward Motility Index (FMI) was used as the measure of motility. FMI is a product of percent motile (%M, percent of sperm moving at velocity greater than […]) and average velocity (Va, the five-point smoothed average of the head positions through analysis of at least twenty frames).

[3] = target: RII, 32P-labeled recombinant regulatory subunit of PKA (isoform not given) used as overlay probe; experiment: RII overlay of bovine sperm blot with 20 µM peptide, densitometric scanning
[4] = target: endogenous RII isoforms of sperm (bands at about 55 kDa); experiment: cell-based or functional assay

Sequence of PP-1 (P62136 whole entry): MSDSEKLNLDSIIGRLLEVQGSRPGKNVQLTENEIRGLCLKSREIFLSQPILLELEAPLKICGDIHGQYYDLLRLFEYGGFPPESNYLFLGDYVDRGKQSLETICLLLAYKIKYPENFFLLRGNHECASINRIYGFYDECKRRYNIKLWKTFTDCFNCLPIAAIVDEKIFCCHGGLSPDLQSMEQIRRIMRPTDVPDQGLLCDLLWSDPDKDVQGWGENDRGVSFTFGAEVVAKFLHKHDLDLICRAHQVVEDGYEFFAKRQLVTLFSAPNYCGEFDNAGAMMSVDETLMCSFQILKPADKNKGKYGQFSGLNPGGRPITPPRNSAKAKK
Sequence of PP-2A (P67775 whole entry): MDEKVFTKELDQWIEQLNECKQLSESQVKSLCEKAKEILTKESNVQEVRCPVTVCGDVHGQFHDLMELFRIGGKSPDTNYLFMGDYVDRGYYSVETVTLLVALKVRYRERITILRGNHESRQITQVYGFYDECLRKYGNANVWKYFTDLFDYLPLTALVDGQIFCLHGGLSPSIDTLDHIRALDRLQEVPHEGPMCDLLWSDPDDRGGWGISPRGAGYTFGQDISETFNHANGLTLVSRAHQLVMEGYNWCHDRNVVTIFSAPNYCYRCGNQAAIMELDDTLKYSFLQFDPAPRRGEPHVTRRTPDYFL

TRDIYETDYYRK-amide (Stearyl-TRDIY(sulfo)ETDY(sulfo)Y(sulfo)RK-NH2; not fully specified; printed as TRDIYETDYYRK-amide; listed as Homo sapiens)
Effect on activity of PP-1 (PP-1): did not have an effect | Increase in insulin-stimulated receptor autophosphorylation (insulin receptor): 4.5 fold | Effect on activity of PP-2A (PP-2A): did not have an effect | Effect on activity of alkaline phosphatase (alkaline phosphatase): did not have an effect

DLIEEAASRIVDAVIEQVKAAGAY (listed as Homo sapiens) [Ht31]
Inhibition of RII binding to AKAP110 (RII binding to AKAP 110): 100%

Stearyl-YETLLIETASSLVKNAIQLSIE amide (Stearyl-YETLLIETASSLVKNAIQLSIE-NH2; listed as Homo sapiens) [s-AKAP79]
Effect on motility of monkey-ejaculate sperm (monkey ejaculated sperm): inhibited sperm motility in a concentration- and time-dependent manner

CCCCCCCCCCCCCCCCCC(=O)N[C@@H](CC(=O)O)C(=O)N[C@@H](CC(C)C)C(=O)N[C@H](C(=O)N[C@@H](CCC(=O)O)C(=O)N[C@@H](CCC(=O)O)C(=O)N[C@@H](C)C(=O)N[C@@H](C)C(=O)N[C@@H](CO)C(=O)N[C@@H](CCCNC(=N)N)C(=O)N[C@H](C(=O)N[C@H](C(=O)N[C@@H](CC(=O)O)C(=O)N[C@@H](C)C(=O)N[C@H](C(=O)N[C@H](C(=O)N[C@@H](CCC(=O)O)C(=O)N[C@@H](CCC(N)=O)C(=O)N[C@H](C(=O)N[C@@H](CCCCN)C(=O)N[C@@H](C)C(=O)N[C@@H](C)C(=O)NCC(=O)N[C@@H](C)C(=O)N[C@@H](Cc1ccc(O)cc1)C(=O)O)C(C)C)[C@@H](C)CC)C(C)C)C(C)C)[C@@H](C)CC)[C@@H](C)CC [s-Ht31]
Effect on sperm viability / plasma membrane integrity (uptake of SYBR-green and rhodamine 123) (sperm): did not decrease viability or disrupt the integrity of the sperm plasma membrane | Release of BCECF or Fura 2 from loaded sperm (sperm): did not compromise the integrity of the plasma membrane

C[C@@H]1CC[C@@]2(OC1)O[C@H]1[C@@H](O)[C@H]3[C@@H]4CC[C@H]5C[C@@H](O[C@@H]6O[C@H](CO)[C@H](O[C@@H]7O[C@H](CO)[C@@H](O)[C@H](O[C@@H]8OC[C@@H](O)[C@H](O)[C@H]8O)[C@H]7O[C@@H]7O[C@H](CO)[C@H](O)[C@H](O[C@@H]8O[C@H](CO)[C@@H](O)[C@H](O)[C@H]8O)[C@H]7O)[C@H](O)[C@H]6O)[C@H](O)C[C@]5(C)[C@H]4CC[C@]3(C)[C@H]1[C@@H]2C [digitonin]
Release of BCECF or Fura 2 from loaded sperm (sperm): caused release of these dyes

Nc1nc(Cl)nc2c1ncn2[C@H]1C[C@H](O)[C@@H](CO)O1 [CDA, 2-chloro-2′-deoxyadenosine]
Increase of basal PKA activity ([1]; 30 min at 37° C., both caudal and caput sperm): approximately 60%

Stearyl-DLIEEAASRPVDAVPEQVKAAGAY amide (Stearyl-DLIEEAASRPVDAVPEQVKAAGAY-NH2; listed as Homo sapiens) [s-Ht31-P]
Effect on sperm motility ([2]; concentrations up to 20 μM, 5 min): no effect

O=S(=O)(NCCNCC=Cc1ccc(Br)cc1)c1cccc2cnccc12 [H-89, N-[2-(p-bromocinnamylamino)ethyl]-5-isoquinoline-sulfonamide]
Effect on PKA activity of treated sperm ([1]; in the presence or absence of CDA, sperm washed before lysis): strongly inhibited PKA activity | Effect on sperm motility stimulated by CDA ([2]; 50 μM H-89 added 15 min prior to 50 μM CDA): no effect | inhibition at 50 µM ([2]; Bos taurus, Sperm, 0.25 h, 50 μM, 15 min, FIG. 14, read-out: Inhibition of basal sperm motility): ≤ 50%

B1: s-Ht31-P: Stearyl-… amide (peptide)
peptide: stearyl-DLIEEAASRPVDAVPEQVKAAGAY-NH2
percent inhibition of RII binding to AKAP110 [3]: 0%

B2: s-Ht31: Stearyl-… amide (peptide)
peptide: Stearyl-DLIEEAASRIVDAVIEQVKAAGAY-NH2
modifications: not fully specified
concentration of s-Ht31 needed to produce 50% inhibition of bovine sperm motility, five minutes post-treatment [4]: 1 µM | percent inhibition of RII binding to AKAP110 [3]: 85%

B3: Ht31 (anchor inhibiting peptide, non-stearated) (peptide)
peptide: DLIEEAASRIVDAVIEQVKAAGAY
percent inhibition of RII binding to AKAP110 [3]: 100%
